Test results as given in EP0791056B1, “LIPID-CLEAVAGE ENZYME COMPLEX” (priority 1994, dated 1996).

Key:
[1] = test system: LCE; test: Influence of enzyme inhibitors or activators on LCE activity, kidney membrane fraction; assay type: biochemical, Balb/c; conditions: LCE Membranfraktion Niere (Balb/c)
Description: (§1) Das Pipettierschema ist in der folgenden Tabelle angegeben. Tabelle
(§2) Zur Untersuchung der enzymatischen Spaltung in Abhängigkeit von der Substratkonzentration wurde eine Substratstammlösung von 0.98 nmol [^14C]-AZT-DMDOPE und 0.7 nmol AZT-DMDOPE/80 µl Aqua bidest. im LCE-Assay angesetzt. Die verschiedenen Substratkonzentrationen im LCE-Assay wurden durch kontinuierliche Verdopplung bzw. Halbierung des Volumens an Substratlösung eingestellt. Die Ansätze wurden in Glasröhrchen (5 ml) vorgelegt und durch Zugabe der Substratlösung gestartet. Die Inkubation wurde bei 37 °C im Wasserbad unter leichtem Schütteln durchgeführt.
(§3) Die Reaktionsansätze des LCE-Assays wurden nach entsprechender Inkubationszeit dem Wasserbad entnommen, und die Reaktion durch Zugabe von 750 µl 2-Propanol gestoppt. Nach gründlicher Durchmischung wurden die Ansätze anschließend mit 700 µl auf Raumtemperatur erwärmtem n-Heptan versetzt. Die Ansätze wurden erneut für 30 sec gut gemischt und zur Beschleunigung der Phasentrennung in der Minifuge T bei 3200 rpm für 15 min bei Raumtemperatur zentrifugiert. Anschließend wurden 500 µl der oberen Phase (n-Heptan) entnommen und in neue Glasröhrchen (5 ml) mit 10 mg Kieselgel 60 H und 200 µl n-Heptan überführt. Die Ansätze wurden für 30 sec gut durchmischt und zur Sedimentation des Kieselgels für 10 min unter oben genannten Bedingungen zentrifugiert. Vom Überstand wurden anschließend 500 µl entnommen und mit 3 ml Szintillationsflüssigkeit versetzt. Die Messung der Radioaktivität erfolgte für 4 min im Flüssigkeits-Szintillations-Analysator. Zur Bestimmung des Absolutwertes an Radioaktivität wurden 200 µl der Substratlösung mit 3 ml Szintillationsflüssigkeit versetzt und unter gleichen Bedingungen im Flüssigkeits-Szintillations-Analysator gemessen.

[2] = test system: LCE; test: Influence of enzyme inhibitors or activators on LCE activity, CEM-SS membrane fraction; assay type: biochemical; conditions: LCE Membranfraktion CEM-SS
Description: as §1, §2
as §3, with “Vom Überstand wurden anschließend 500 µl entnommen und mit 3 ml Szintillationsflüssigkeit versetzt. Die Messung der Radioaktivität erfolgte für 4 min im Flüssigkeits-Szintillations-Analysator. Zur Bestimmung des Absolutwertes an Radioaktivität wurden 200 µl der Substratlösung mit 3 ml Szintillationsflüssigkeit versetzt und unter gleichen Bedingungen im Flüssigkeits-Szintillations-Analysator gemessen.” left out

[3] = test system: LCE; test: Effect of phospholipase C/D inhibitors and activators on LCE as stated in the description; assay type: biochemical
[4] = test system: Phospholipase C; conditions: cited from earlier work

For S=C(S)OC1CC2CC1C1CCCC21 (stereo not shown) [D 609, Tricyclodecan-9-yl-xanthogenat], the “Einfluß auf LCE-Aktivität” value [1] was “Stimulation Stimulation”, the “Einfluß auf LCE-Aktivität” value [2] was “Stimulation Stimulation” and the “Einfluß auf LCE (Hemmung/Aktivierung)” value [3] was “aktiviert”. The “Einfluß auf Phospholipase C” value [4] was “inhibiert”.
